Assay results reported in patent US10189836B2, “Therapeutic compounds, compositions and methods of use thereof” (Genentech, Inc., priority 2015, dated 2019).

What follows are compounds tested against isolated recombinant JAK1 kinase domain (Homo sapiens (Human), UniProt P23458) (assay: JAK1 enzyme assay (Caliper LabChip, Ki)). Conditions: isolated recombinant JAK1 kinase domain, 1.5 nM enzyme, ATP 25 μM.
Format: biochemical

Chain of isolated recombinant JAK1 kinase domain (P23458 875-1153): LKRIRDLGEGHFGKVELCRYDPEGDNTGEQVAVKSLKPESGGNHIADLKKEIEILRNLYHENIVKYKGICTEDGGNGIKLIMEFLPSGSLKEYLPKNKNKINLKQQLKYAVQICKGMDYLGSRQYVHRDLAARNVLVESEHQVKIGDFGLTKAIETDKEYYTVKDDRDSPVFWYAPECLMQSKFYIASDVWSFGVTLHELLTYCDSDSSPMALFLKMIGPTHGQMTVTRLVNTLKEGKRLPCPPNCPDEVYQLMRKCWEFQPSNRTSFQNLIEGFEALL

First: CN1CCN(C(=O)Cn2cc(Nc3nc4c(C5=CC6CCC(C5)N6C(=O)CCC(F)(F)F)cccn4n3)cn2)CC1 (stereo not drawn) [Example 13, 4,4,4-trifluoro-1-[3-[2-[[1-[2-(4-methylpiperazin-1-yl)-2-oxo-ethyl]pyrazol-4-yl]amino]-[1,2,4]triazolo[1,5-a]pyridin-8-yl]-8-azabicyclo[3.2.1]oct-3-en-8-yl]butan-1-one]
Second: CN1CCN(C(=O)Cn2cc(Nc3nc4c(N5CC6CCC(C5)N6CCCC(F)(F)F)cccn4n3)cn2)CC1 [Example 73, 1-(4-methylpiperazin-1-yl)-2-[4-[[8-[8-(4,4,4-trifluorobutyl)-3,8-diazabicyclo[3.2.1]octan-3-yl]-[1,2,4]triazolo[1,5-a]pyridin-2-yl]amino]pyrazol-1-yl]ethanone]
The Ki of the first is 9.8-fold lower: 0.9 nM for the first, 8.8 nM for the second. The first binds more tightly here.

`Cc1ccc(CO[C@H]2[C@@H]3CC[C@H]2CN(c2cccn4nc(Nc5cnn(CC(=O)N6CCN(C)CC6)c5)nc24)C3)cn1` [Example 151, 1-(4-methylpiperazin-1-yl)-2-[4-[[8-[rac-(1S,5R)-8-[(6-methyl-3-pyridyl)methoxy]-3-azabicyclo[3.2.1]octan-3-yl]-[1,2,4]triazolo[1,5-a]pyridin-2-yl]amino]pyrazol-1-yl]ethanone] and `CN1CCN(C(=O)Cn2cc(Nc3nc4c(N5C[C@H]6CC[C@@H](C5)[C@H]6OCc5ccncc5)cccn4n3)cn2)CC1` [Example 144, 1-(4-methylpiperazin-1-yl)-2-[4-[[8-[rac-(1S,5R)-8-(4-pyridylmethoxy)-3 - azabicyclo[3.2.1]octan-3-yl]-[1,2,4]triazolo[1,5-a]pyridin-2-yl]amino]pyrazol-1-yl]ethanone] are within 1.5-fold of each other in Ki: 0.6 nM for the first, 0.8 nM for the second.

`CN1CCN(C(=O)Cn2cc(Nc3nc4c(N5CC6CCC(C5)N6C(=O)C5CC6C(C5)C6(F)F)cccn4n3)cn2)CC1` (stereo not drawn) [Example 57, 2-[4-[[8-[8-(6,6-difluorobicyclo[3.1.0]hexane-3-carbonyl)-3,8-diazabicyclo[3.2.1]octan-3-yl]-[1,2,4]triazolo[1,5-a]pyridin-2-yl]amino]pyrazol-1-yl]-1-(4-methylpiperazin-1-yl)ethanone] and `CN1CCN(C(=O)Cn2cc(Nc3nc4c(N5CC6CCC(C5)N6C(=O)c5ccccc5)cccn4n3)cn2)CC1` [Example 70, 2-[4-[[8-(8-benzoyl-3,8-diazabicyclo[3.2.1]octan-3-yl)-[1,2,4]triazolo[1,5-a]pyridin-2-yl]amino]pyrazol-1-yl]-1-(4-methylpiperazin-1-yl)ethanone] are within 1.5-fold of each other in Ki: 4.8 nM for the first, 4.2 nM for the second.

Compared with `CN1CCN(C(=O)Cn2cc(Nc3nc4c(N5C[C@H]6CC[C@@H](C5)[C@H]6NCCC(F)(F)F)cccn4n3)cn2)CC1` [Example 145, 1-(4-methylpiperazin-1-yl)-2-(4-((8-((1R,5 S,8r)-8-((3,3,3-trifluoropropyl)amino)-3-azabicyclo[3.2.1]octan-3-yl)-[1,2,4]triazolo[1,5-a]pyridin-2-yl)amino)-1H-pyrazol-1-yl)ethanone], `CN1CCN(C(=O)Cn2cc(Nc3nc4c(N5C[C@H]6CC[C@@H](C5)[C@@H]6OCc5ccncc5)cccn4n3)cn2)CC1` [Example 189, 1-(4-methylpiperazin-1-yl)-2-(4-((8-((1R,5 S,8s)-8-(pyridin-4-ylmethoxy)-3-azabicyclo[3.2.1]octan-3-yl)-[1,2,4]triazolo[1,5-a]pyridin-2-yl)amino)-1H-pyrazol-1-yl)ethanone] is 2.6-fold lower in Ki: 1.3 nM for the first, 0.5 nM for the second.

`CN1CCN(C(=O)Cn2cc(Nc3nc4c(C5=CC6CCC(C5)N6C(=O)CCC(F)(F)F)cccn4n3)cn2)CC1` (stereo not drawn) [Example 18, 4,4,4-trifluoro-1-[3-[2-[[1-[2-(4-methylpiperazin-1-yl)-2-oxo-ethyl]pyrazol-4-yl]amino]-[1,2,4]triazolo[1,5-a]pyridin-8-yl]-8-azabicyclo[3.2.1]oct-3-en-8-yl]butan-1-one] showed a Ki of 1.5 nM.
